Laboratory results: patent US4918074A, “Polyazaheterocycle compounds” (Yoshitomi Pharmaceutical Industries, Ltd., priority 1984, dated 1990)

What was measured:
[1] = system: left coronary blood flow; test: Coronary blood flow after injection into left coronary artery of anesthetized dogs; format: in vivo; conditions: intracoronary injection, anesthetized dog; dose to increase CBF by half of the effect of nifedipine (3 μg)
Procedure: (§1) Dogs of either sex were anesthetized with sodium pentobarbital (30 mg/kg i.v.). Heparin (500 U/kg i.v.) was administered before making preparation. Under artificial respiration (18 strokes/min, 20 ml/kg tidal volume), left ventricular dp/dt max, and left coronary blood flow were measured (1). Test compounds were injected into the left coronary artery in a volume of 10 or 30 μl. The effects of compounds on coronary blood flow were observed and presented generally as ED50, a dose required to increase coronary blood flow by a half of the effects of nifedipine (3 μg). Similarly, the effects on dp/dt max were observed and shown as ED30, a dose required to increase dp/dt max by 30% of the efffects of isoproterenol (0.1 μg).

[2] = system: Papillary muscle; test: Ca2+-agonistic and antagonistic action in rabbit myocardium (papillary muscle); conditions: compound 10^-4 M
Procedure: Papillary muscle was isolated from rabbit heart and suspended in 40 ml chamber filled with Krebs-Henseleit solution ([Ca^2+ ]o was elevated to 5 mM) bubbled with a gas mixture of 95% O2 +5% CO2 and kept at 37° C. The preparation was electrically driven at a rate of 0.5 Hz and developed tension was observed. [K^+ ]o was varied from 5.9 mM to 27 mM in the absence and presence of test compounds.
[K^+ ]o, at which conversion of the effects of compounds (10^-4 M) occurred, was as follows.

[3] = system: left ventricular dp/dt max; test: Left ventricular dp/dt max after injection into left coronary artery of anesthetized dogs; format: in vivo; conditions: intracoronary injection, anesthetized dog; dose to increase dp/dt max by 30% of effect of isoproterenol (0.1 μg)
Procedure: as §1

[4] = system: coronary arterial blood flow; test: Coronary vasodilating effects in the anesthetized dog; format: in vivo; conditions: Canis lupus familiaris, iv, read-out: Increase in coronary blood flow; for change in vivo at 0.3 mg/kg: 300 μg/kg
Procedure: (§2) Adult mongrel dogs were anesthetized with sodium pentobarbital (30 mg/kg i.v.). Effects of test compounds on arterial blood pressure, coronary arterial blood flow, vertebral blood flow, renal blood flow, left ventricular dp/dt max (dp/dt max) and urine volume were observed. The compounds were administered intravenously (i.v.) or intraduodenally (i.d.).

[5] = system: Rabbit aorta; test: Ca2+-agonistic and antagonistic activity in rabbit aorta; conditions: compound 10^-6 M
Procedure: Rabbit aorta were isolated and cut into ring segments of about 2 mm. These preparations were suspended in 40 ml chambers filled with Krebs-Henseleit solution bubbled with a gas mixture of 95% O2 +5% CO2 (pH 7.4) and kept at 37° C. The contractile response to [K^+ ]o (9-48 mM) was measured in the absence or presence of test compounds (1).
That is, at lower [K^+ ]o these compounds augmented contractile force, however, at higher [K^+ ]o they produced only relaxation of aorta. [K^+ ]o, at which conversion of the effects of compounds (10^-6 M) occurred, was as follows.

[6] = system: arterial blood pressure; test: Hypotensive effects in the anesthetized dog; format: in vivo; conditions: Canis lupus familiaris, iv, read-out: Hypotensive effect; for inhibition in vivo at 0.3 mg/kg: 300 μg/kg
Procedure: as §2

[7] = system: left ventricular dp/dt max; test: Cardiotonic effects in the anesthetized dog; format: in vivo; conditions: Canis lupus familiaris, iv, 300 μg/kg; read-out: Increase in dp/dt max
Procedure: as §2

[8] = system: blood pressure, coronary, renal and heart function; test: Cardiovascular and renal activity in words; format: in vivo
[9] = Oral bioavailability in words; format: in vivo
[10] = system: ddY strain mice; test: Acute toxicity in mice; format: in vivo; conditions: five days after administration
Text: Compound (1), (10) and (23) were orally or intraperitoneally administered to ddY strain mice.

| SMILES | Increase in CBF ED50 [1] | [K+]o at which conversion of Ca2+-agonistic to Ca2+-antagonistic action occurred [2] | Increase in dp/dt max ED30 [3] | change in vivo at 0.03 mg/kg ([4]; 30 μg/kg) | [K+]o at which conversion of Ca2+-agonistic to Ca2+-antagonistic action occurred [5] | inhibition in vivo at 0.03 mg/kg ([6]; 30 μg/kg) | change in vivo at 0.3 mg/kg [4] | change in vivo at 0.3 mg/kg [7] | inhibition in vivo at 0.3 mg/kg [6] | Coronary vasodilating activity [8] | Diuretic activity [8] | Heart-depressive activity [8] | Hypotensive activity [8] | Renal blood flow increasing activity [8] | Bioavailability by oral administration [9] | Survival ([10]; intraperitoneal, 250 mg/kg) | Survival ([10]; oral, 1,000 mg/kg) |
| --- | --- | --- | --- | --- | --- | --- | --- | --- | --- | --- | --- | --- | --- | --- | --- | --- | --- |
| CC1=C(C(=O)OC2CCCC2)C(c2ccccc2F)n2nccc2N1 (stereo not drawn) [(25), 6-Cyclopentyloxycarbonyl-7-(2-fluorophenyl)-5-methyl-4,7-dihydropyrazolo[1,5-a]pyrimidine] | 28 µg | 15 mM | 164 µg |  |  |  |  |  |  |  |  |  |  |  |  |  |  |
| CC1=C(C(=O)OC(C)C)C(c2ccccc2Br)n2nccc2N1 (stereo not drawn) [(27), 7-(2-Bromophenyl)-6-isopropoxycarbonyl-5-methyl-4,7-dihydropyrazolo[1,5-a]pyrimidine] | 7 µg | 12 mM | 103 µg | 37% | 22 mM | 20% |  |  |  |  |  |  |  |  |  |  |  |
| CC1=C(C(=O)OC2CCCC2)C(c2ccccc2C(F)(F)F)n2nccc2N1 (stereo not drawn) [(15), 6-Cyclopentyloxycarbonyl-5-methyl-7-(2-trifluoromethylphenyl)-4,7-dihydropyrazolo[1,5-a]pyrimidine] | 1.8 µg | 18 mM | 198 µg |  | 20 mM |  | 125% | 83% | 20% |  |  |  |  |  |  |  |  |
| CC(C)OC(=O)C1=C(COCCN)Nc2c(C#N)cnn2C1c1cccc(F)c1F (stereo not drawn) [isopropyl 5-(2-aminoethoxymethyl)-3-cyano-7-(2,3-difluorophenyl)-4,7-dihydropyrazolo[1,5-a]pyrimidine-6-carboxylate] |  |  |  |  |  |  |  |  |  | high-selective coronary vasodilating activity | potent diuretic activity | weak heart-depressive activity | mild and long-lasting hypotensive activity | renal blood flow increasing activity | higher bioavailability by the oral administration |  |  |
| CC1=C(C(=O)OC(C)C)C(c2ccccc2C)n2nccc2N1 (stereo not drawn) [(30), 6-Isopropoxycarbonyl-5-methyl-7-(2-methylphenyl)-4,7-dihydropyrazolo[1,5-a]pyrimidine] |  | 15 mM |  |  | 28 mM |  | 47% | 46% |  |  |  |  |  |  |  |  |  |
| CC1=C(C(=O)OC(C)C)C(c2ccccc2C(F)(F)F)n2nccc2N1 (stereo not drawn) [(10), 6-Isopropoxycarbonyl-5-methyl-7-(2-trifluoromethylphenyl)-4,7-dihydropyrazolo[1,5-a]pyrimidine] | 5.7 µg | 15 mM | 71 µg |  | 21 mM |  | 132% | 39% | 31% |  |  |  |  |  |  | All mice survived | All mice survived |
| CC1=C(C(=O)OC(C)C)C(c2ccccc2F)n2nccc2N1 (stereo not drawn) [(23), 7-(2-Fluorophenyl)-6-isopropoxycarbonyl-5-methyl-4,7-dihydropyrazolo[1,5-a]pyrimidine] | 15 µg | 12 mM | 71 µg |  | 19 mM |  | 157% | 44% | 32% |  |  |  |  |  |  | All mice survived | All mice survived |
| CC1=C(C(=O)OC(C)(C)C)C(c2ccccc2C(F)(F)F)n2nccc2N1 (stereo not drawn) [(13), 6-tert-Butoxycarbonyl-5-methyl-7-(2-trifluoromethylphenyl)-4,7-dihydropyrazolo[1,5-a]pyrimidine] | 22 µg | 14 mM | 70 µg |  | 24 mM |  | 34% | 39% |  |  |  |  |  |  |  |  |  |
| CCOC(=O)C1=C(C)Nc2ccnn2C1c1ccccc1C(F)(F)F (stereo not drawn) [(1), 6-Ethoxycarbonyl-5-methyl-7-(2-trifluoromethylphenyl)-4,7-dihydropyrazolo[1,5-a]pyrimidine] |  | 16 mM |  |  | 23 mM |  |  |  |  |  |  |  |  |  |  | All mice survived | All mice survived |
